From ChEMBL document CHEMBL5653615 (J Biol Chem, 2013)

Tests used:
[1] = molecular target: Tyrosine-protein kinase Fer (Homo sapiens) (UniProt P16591); assay: Inhibition of human FER at 500 nM by HotSpot assay relative to control
[2] = molecular target: Serine/threonine-protein kinase B-raf (Homo sapiens) (UniProt P15056); assay: Inhibition of human BRAF at 500 nM by HotSpot assay relative to control
[3] = molecular target: Serine/threonine-protein kinase Nek6 (Homo sapiens) (UniProt Q9HC98); assay: Inhibition of human NEK6 at 500 nM by HotSpot assay relative to control
Homo sapiens = organism: Homo sapiens; assay: Inhibition of human CDK2/cyclin A at 500 nM by HotSpot assay relative to control
[4] = molecular target: Ribosomal protein S6 kinase alpha-3 (Homo sapiens) (UniProt P51812); assay: Inhibition of human RSK2 at 500 nM by HotSpot assay relative to control
[5] = molecular target: Interleukin-1 receptor-associated kinase 1 (Homo sapiens) (UniProt P51617); assay: Inhibition of human IRAK1 at 500 nM by HotSpot assay relative to control
[6] = molecular target: T1, Serine/threonine-protein kinase TAO3 (Homo sapiens) (UniProt Q9H2K8); assay: Inhibition of human JIK at 500 nM by HotSpot assay relative to control
T1 sequence (whole entry): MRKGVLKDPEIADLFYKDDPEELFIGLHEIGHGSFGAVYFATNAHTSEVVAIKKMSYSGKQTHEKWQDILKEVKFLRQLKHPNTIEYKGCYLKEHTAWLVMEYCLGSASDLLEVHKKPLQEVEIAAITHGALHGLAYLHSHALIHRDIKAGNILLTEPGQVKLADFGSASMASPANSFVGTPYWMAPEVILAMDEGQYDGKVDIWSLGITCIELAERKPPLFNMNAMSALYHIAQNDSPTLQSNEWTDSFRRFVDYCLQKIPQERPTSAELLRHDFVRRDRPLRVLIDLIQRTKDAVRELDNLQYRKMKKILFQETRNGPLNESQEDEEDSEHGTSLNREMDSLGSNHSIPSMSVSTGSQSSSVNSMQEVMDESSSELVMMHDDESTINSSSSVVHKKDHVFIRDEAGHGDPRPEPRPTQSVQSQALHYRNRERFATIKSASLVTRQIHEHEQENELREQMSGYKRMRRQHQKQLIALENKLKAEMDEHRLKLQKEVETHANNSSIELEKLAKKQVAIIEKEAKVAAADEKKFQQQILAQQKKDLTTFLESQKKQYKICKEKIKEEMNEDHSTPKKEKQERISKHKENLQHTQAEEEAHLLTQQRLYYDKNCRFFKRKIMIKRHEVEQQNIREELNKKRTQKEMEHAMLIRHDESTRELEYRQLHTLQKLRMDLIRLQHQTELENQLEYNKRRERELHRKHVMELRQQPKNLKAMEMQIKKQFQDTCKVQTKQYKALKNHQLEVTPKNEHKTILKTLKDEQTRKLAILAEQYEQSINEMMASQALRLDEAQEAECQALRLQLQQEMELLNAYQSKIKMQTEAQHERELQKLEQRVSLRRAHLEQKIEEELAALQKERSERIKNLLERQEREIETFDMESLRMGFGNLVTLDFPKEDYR

[7] = molecular target: RAF proto-oncogene serine/threonine-protein kinase (Homo sapiens) (UniProt P04049); assay: Inhibition of human RAF1 at 500 nM by HotSpot assay relative to control
[8] = molecular target: T2, Serine/threonine-protein kinase TBK1 (Homo sapiens) (UniProt Q9UHD2); assay: Inhibition of human TBK1 at 500 nM by HotSpot assay relative to control
T2 sequence (whole entry): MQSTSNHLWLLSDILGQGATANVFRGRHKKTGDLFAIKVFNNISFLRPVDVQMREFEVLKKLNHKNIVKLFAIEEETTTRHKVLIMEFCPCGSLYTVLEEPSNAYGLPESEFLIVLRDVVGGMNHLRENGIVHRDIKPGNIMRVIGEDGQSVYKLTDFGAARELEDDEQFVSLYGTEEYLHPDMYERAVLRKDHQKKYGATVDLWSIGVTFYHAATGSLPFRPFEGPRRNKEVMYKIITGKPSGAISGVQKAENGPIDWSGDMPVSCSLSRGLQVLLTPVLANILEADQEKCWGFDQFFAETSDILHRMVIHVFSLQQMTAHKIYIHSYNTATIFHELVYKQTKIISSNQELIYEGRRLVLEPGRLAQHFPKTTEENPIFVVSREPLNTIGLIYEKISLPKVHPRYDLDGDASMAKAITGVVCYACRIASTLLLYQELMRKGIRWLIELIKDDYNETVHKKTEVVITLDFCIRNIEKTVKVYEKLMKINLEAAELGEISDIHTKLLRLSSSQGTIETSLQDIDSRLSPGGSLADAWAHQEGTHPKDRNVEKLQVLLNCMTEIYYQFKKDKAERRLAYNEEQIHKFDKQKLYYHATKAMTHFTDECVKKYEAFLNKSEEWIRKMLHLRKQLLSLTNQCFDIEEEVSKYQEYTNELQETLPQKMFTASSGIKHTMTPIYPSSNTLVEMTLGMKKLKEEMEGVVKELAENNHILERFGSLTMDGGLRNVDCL

[9] = molecular target: Tyrosine-protein kinase ABL1 (Homo sapiens) (UniProt P00519); assay: Inhibition of human ABL1 at 500 nM by HotSpot assay relative to control
[10] = molecular target: Serine/threonine-protein kinase 25 (Homo sapiens) (UniProt O00506); assay: Inhibition of human YSK1 at 500 nM by HotSpot assay relative to control
Chain of Serine/threonine-protein kinase 25 (Homo sapiens) (O00506 whole entry, looked up): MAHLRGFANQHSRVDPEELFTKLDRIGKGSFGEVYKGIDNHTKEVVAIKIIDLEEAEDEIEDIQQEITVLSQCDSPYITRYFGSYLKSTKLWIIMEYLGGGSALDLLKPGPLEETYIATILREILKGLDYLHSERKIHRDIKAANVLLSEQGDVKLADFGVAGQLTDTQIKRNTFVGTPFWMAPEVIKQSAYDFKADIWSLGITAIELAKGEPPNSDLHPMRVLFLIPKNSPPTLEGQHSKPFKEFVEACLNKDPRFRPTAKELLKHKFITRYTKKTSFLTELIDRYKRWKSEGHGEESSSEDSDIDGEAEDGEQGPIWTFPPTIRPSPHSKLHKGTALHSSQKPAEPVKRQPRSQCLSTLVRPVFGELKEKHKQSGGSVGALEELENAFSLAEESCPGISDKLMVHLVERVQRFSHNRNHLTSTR

Chain of Tyrosine-protein kinase Fer (Homo sapiens) (P16591 whole entry, looked up): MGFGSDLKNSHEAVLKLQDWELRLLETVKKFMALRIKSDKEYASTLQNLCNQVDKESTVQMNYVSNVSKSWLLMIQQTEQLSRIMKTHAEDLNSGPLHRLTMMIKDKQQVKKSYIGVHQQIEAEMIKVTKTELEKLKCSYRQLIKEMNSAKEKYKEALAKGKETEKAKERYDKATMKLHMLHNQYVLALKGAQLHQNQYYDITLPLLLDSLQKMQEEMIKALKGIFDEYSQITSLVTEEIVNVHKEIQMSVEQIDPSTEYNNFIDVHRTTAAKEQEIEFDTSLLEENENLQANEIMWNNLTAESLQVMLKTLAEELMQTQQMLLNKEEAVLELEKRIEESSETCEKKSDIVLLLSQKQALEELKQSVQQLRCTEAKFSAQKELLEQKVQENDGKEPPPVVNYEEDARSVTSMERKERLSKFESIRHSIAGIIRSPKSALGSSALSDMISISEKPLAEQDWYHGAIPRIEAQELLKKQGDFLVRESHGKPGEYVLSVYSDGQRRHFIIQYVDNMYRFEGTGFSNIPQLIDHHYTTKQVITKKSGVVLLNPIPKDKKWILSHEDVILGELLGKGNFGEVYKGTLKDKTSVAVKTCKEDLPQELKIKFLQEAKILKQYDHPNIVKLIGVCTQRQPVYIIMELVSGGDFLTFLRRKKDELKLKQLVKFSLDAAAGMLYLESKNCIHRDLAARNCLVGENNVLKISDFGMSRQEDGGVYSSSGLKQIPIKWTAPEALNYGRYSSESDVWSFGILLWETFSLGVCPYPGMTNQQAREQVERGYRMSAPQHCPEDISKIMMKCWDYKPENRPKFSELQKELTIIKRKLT
Chain of Tyrosine-protein kinase ABL1 (Homo sapiens) (P00519 whole entry): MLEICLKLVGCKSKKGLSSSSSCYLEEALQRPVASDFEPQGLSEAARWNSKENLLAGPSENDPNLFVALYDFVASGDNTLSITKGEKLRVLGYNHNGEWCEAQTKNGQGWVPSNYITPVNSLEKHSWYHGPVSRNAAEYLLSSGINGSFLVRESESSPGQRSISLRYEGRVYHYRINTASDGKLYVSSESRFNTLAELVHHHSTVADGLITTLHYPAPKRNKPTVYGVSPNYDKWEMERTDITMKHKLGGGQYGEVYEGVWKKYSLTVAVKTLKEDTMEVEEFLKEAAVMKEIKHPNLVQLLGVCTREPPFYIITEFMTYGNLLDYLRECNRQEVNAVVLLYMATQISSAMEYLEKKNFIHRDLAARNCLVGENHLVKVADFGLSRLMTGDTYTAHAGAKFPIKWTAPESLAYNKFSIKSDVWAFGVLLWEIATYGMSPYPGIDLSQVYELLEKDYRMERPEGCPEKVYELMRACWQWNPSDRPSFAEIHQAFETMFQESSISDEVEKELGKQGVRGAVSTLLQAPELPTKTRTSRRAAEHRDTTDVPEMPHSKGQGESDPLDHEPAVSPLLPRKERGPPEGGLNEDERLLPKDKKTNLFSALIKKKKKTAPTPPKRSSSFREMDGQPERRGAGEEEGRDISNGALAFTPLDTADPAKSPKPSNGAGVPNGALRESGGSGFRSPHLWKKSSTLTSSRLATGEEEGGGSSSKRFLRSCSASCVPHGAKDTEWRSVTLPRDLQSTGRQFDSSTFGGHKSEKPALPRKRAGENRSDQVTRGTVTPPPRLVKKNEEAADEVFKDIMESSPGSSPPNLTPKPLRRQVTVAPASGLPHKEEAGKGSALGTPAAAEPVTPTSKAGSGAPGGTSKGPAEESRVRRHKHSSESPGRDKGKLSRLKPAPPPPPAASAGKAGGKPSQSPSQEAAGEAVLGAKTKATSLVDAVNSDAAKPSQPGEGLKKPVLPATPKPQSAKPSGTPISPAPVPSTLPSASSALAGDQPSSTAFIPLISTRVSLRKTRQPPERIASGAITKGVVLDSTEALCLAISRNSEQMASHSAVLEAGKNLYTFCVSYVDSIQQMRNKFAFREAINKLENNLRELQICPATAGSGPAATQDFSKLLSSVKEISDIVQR
Chain of Interleukin-1 receptor-associated kinase 1 (Homo sapiens) (P51617 whole entry, looked up): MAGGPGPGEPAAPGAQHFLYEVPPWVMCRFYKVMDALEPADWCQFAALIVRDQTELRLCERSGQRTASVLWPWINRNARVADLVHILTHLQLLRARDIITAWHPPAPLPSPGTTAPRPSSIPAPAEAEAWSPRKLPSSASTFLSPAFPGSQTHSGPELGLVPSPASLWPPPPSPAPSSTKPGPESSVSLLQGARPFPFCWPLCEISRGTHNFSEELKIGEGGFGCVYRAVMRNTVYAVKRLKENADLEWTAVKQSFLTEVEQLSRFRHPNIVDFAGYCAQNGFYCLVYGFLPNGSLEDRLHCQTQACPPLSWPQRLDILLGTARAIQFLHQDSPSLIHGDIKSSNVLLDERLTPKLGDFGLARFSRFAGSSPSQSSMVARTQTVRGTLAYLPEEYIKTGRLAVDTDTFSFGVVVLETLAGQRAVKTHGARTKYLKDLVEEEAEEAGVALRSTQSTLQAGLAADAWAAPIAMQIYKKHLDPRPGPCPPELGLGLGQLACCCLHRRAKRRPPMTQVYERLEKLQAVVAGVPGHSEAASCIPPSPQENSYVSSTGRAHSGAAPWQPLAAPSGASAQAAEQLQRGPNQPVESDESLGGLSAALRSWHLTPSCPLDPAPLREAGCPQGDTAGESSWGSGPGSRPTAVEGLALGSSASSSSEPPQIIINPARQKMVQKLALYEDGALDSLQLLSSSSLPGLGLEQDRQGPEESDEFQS
Chain of RAF proto-oncogene serine/threonine-protein kinase (Homo sapiens) (P04049 whole entry): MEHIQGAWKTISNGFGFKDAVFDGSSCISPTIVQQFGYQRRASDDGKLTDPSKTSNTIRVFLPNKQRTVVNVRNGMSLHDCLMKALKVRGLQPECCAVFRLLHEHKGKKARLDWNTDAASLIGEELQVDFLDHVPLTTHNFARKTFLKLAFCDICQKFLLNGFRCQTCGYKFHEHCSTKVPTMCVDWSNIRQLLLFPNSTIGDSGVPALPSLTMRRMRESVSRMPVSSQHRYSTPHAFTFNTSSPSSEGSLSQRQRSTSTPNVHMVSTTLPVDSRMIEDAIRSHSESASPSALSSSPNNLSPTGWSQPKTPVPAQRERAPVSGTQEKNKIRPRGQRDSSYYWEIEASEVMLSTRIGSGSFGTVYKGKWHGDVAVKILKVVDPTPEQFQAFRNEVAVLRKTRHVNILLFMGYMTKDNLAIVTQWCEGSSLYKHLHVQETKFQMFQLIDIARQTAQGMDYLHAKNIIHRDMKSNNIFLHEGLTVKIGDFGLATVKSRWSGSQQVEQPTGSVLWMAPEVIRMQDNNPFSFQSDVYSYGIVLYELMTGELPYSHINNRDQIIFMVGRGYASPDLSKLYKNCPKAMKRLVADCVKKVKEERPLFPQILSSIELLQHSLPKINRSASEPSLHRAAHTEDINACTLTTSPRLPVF
Chain of Serine/threonine-protein kinase Nek6 (Homo sapiens) (Q9HC98 whole entry): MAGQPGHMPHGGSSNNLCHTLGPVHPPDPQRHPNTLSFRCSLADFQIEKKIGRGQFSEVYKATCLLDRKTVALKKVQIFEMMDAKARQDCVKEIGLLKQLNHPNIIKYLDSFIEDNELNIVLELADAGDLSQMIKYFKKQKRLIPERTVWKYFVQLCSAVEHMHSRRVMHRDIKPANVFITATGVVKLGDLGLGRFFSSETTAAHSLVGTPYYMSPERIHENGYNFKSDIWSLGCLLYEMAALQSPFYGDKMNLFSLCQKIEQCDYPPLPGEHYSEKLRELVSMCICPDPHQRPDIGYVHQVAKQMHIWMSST
Chain of Ribosomal protein S6 kinase alpha-3 (Homo sapiens) (P51812 whole entry): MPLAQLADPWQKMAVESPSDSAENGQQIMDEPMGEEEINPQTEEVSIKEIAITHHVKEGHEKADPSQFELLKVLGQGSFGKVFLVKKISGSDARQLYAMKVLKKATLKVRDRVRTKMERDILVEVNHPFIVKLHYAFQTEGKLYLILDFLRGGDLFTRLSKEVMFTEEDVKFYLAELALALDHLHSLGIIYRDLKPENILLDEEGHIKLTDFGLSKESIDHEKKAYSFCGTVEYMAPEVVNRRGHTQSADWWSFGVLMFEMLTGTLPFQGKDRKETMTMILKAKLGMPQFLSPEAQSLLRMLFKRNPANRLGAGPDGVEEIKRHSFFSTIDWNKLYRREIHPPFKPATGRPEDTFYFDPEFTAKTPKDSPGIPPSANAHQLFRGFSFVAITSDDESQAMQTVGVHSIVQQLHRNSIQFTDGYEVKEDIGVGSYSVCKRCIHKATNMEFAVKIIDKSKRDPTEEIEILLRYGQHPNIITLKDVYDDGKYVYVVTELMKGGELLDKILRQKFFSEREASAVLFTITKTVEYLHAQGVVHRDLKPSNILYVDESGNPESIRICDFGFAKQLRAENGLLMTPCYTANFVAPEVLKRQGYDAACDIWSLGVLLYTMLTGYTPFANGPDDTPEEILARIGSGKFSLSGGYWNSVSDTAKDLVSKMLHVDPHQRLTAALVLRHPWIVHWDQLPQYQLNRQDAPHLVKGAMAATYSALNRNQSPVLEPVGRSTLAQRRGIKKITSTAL

| Compound | inhibition [1] | inhibition [2] | inhibition [3] | inhibition (Homo sapiens) | inhibition [4] | inhibition [5] | inhibition [6] | inhibition [7] | inhibition [8] | inhibition [9] | inhibition [10] |
| --- | --- | --- | --- | --- | --- | --- | --- | --- | --- | --- | --- |
| Nc1n[nH]c2nnc(-c3c(-c4ccccc4)nn4ccccc34)cc12 | 9.19% | 4.35% | 4.45% | 7.12% | 1.29% | 0.31% | -1.15% | 4.42% | -0.37% | 16.7% | 15.8% |
| Oc1n[nH]c2nnc(-c3c(-c4ccccc4)nn4ccccc34)cc12 | 17.4% | 3.81% | 3.5% | -0.72% | -2.36% | -2.21% | 4.08% | 1.96% | -4.04% | 0.36% | 4.81% |
